Results published in patent US20210251991A1, “SUBSTITUTED 2,2'-BIPYRIMIDINYL COMPOUNDS, ANALOGUES THEREOF, AND METHODS USING SAME” (priority 2018, published 2021).
pEC50: −log10 of the molar value.

Test system: HBsAg in HepG2.2.15 cells
Test: HBsAg assay: inhibition of HBsAg in HepG2.2.15 cells (chemiluminescence immunoassay of supernatant)
Format: cell-based, hepatitis B virus
Settings: read-out: sAg EC50; HepG2.2.15 cells, supernatant collected at day 6 after exposure, HBsAg CLIA
Procedure: Inhibition of HBsAg was determined in HepG2.2.15 cells. Cells were maintained in culture medium containing 10% fetal calf serum, […], Glutamine, penicillin/streptomycin. Cells were seeded in 96-well collagen-coated plate at a density of 30,000 cells/well. Serially diluted compounds were added to cells next day at the final DMSO concentration of 0.5%. Cells were incubated with compounds for 2-3 days, after which medium was removed. Fresh medium containing compounds was added to cells for additional 3-4 days. At day 6 after exposure of compounds, supernatant was collected, the HBsAg immunoassay (microplate-based chemiluminescence immunoassay kits, CLIA, Autobio Diagnosics Co., Zhengzhou, China, Catalog #CL0310-2) was used to determine the level of HBsAg according to manufactory instruction. Dose-response curves were generated and the EC50 value (effective concentrations that achieved 50% inhibitory effect) were determined using XLfit software. In addition, cells were seeded at a density of 5,000 cells/well for determination of cell viability in the presence and absence of compounds by using CellTiter-Glo reagent (Promega).

SMILES	pEC50
CCC1c2ccccc2CCN1c1cnc(-c2ncccn2)nc1 (single isomer, unassigned) [Example 11, 2-([2,2′-Bipyrimidin]-5-yl)-1-ethyl-1,2,3,4-tetrahydroisoquinoline]	5.85
CCC1c2ccccc2CCN1c1cnc(-c2ncccn2)nc1 (single isomer, unassigned) [Example 12, 2-([2,2′-Bipyrimidin]-5-yl)-1-ethyl-1,2,3,4-tetrahydroisoquinoline]	6.72
CCC1c2cc(OC)c(F)c(F)c2CCN1c1cnc(-c2ncccn2)nc1 (single isomer, unassigned) [Example 30, 1-Ethyl-5,6-difluoro-7-methoxy-2-(2-pyrimidin-2-ylpyrimidin-5-yl)-3,4-dihydro-1H-isoquinoline]	6.89
CCC1c2cc(OC)c(F)c(F)c2CCN1c1cnc(-c2ncccn2)nc1 (single isomer, unassigned) [Example 31, 1-Ethyl-5,6-difluoro-7-methoxy-2-(2-pyrimidin-2-ylpyrimidin-5-yl)-3,4-dihydro-1H-isoquinoline]	5.92
CCC1c2ccc(F)c(F)c2CCN1c1cnc(-c2ncccn2)nc1 (single isomer, unassigned) [Example 33, 1-Ethyl-5,6-difluoro-2-(2-pyrimidin-2-ylpyrimidin-5-yl)-3,4-dihydro-1H-isoquinoline]	6.41
CCC1c2ccc(F)c(F)c2CCN1c1cnc(-c2ncccn2)nc1 (single isomer, unassigned) [Example 34, 1-Ethyl-5,6-difluoro-2-(2-pyrimidin-2-ylpyrimidin-5-yl)-3,4-dihydro-1H-isoquinoline]	6.80
CC1c2ccc(F)c(F)c2CCN1c1ccnc(-c2ncccn2)n1 (single isomer, unassigned) [Example 37, 2-([2,2′-Bipyrimidin]-4-yl)-5,6-difluoro-1-methyl-1,2,3,4-tetrahydroisoquinoline]	6.51
CC1c2ccc(F)c(F)c2CCN1c1ccnc(-c2ncccn2)n1 (single isomer, unassigned) [Example 38, 2-([2,2′-Bipyrimidin]-4-yl)-5,6-difluoro-1-methyl-1,2,3,4-tetrahydroisoquinoline]	5.85
CCC1c2ccc(F)c(F)c2CCN1c1ccnc(-c2ncccn2)n1 (single isomer, unassigned) [Example 40, 1-Ethyl-5,6-difluoro-2-(2-pyrimidin-2-ylpyrimidin-4-yl)-3,4-dihydro-1H-isoquinoline]	6.30
CCC1c2ccc(F)c(F)c2CCN1c1ccnc(-c2ncccn2)n1 (single isomer, unassigned) [Example 41, 1-Ethyl-5,6-difluoro-2-(2-pyrimidin-2-ylpyrimidin-4-yl)-3,4-dihydro-1H-isoquinoline]	5.59
CCC1c2c(OC)ccc(F)c2CCN1c1ccnc(-c2ncccn2)n1 (single isomer, unassigned) [Example 43, 1-Ethyl-5-fluoro-8-methoxy-2-(2-pyrimidin-2-ylpyrimidin-4-yl)-3,4-dihydro-1H-isoquinoline]	7.22
CCC1c2c(OC)ccc(F)c2CCN1c1ccnc(-c2ncccn2)n1 (single isomer, unassigned) [Example 44, 1-Ethyl-5-fluoro-8-methoxy-2-(2-pyrimidin-2-ylpyrimidin-4-yl)-3,4-dihydro-1H-isoquinoline]	5.15
CCC1c2cc(F)c(F)cc2CN1c1ccnc(-c2ncccn2)n1 (single isomer, unassigned) [Example 49, 2-([2,2′-Bipyrimidin]-4-yl)-1-ethyl-5,6-difluoroisoindoline]	7.36
CCC1c2cc(F)c(F)cc2CN1c1ccnc(-c2ncccn2)n1 (single isomer, unassigned) [Example 50, 2-([2,2′-Bipyrimidin]-4-yl)-1-ethyl-5,6-difluoroisoindoline]	6.40
CCC1c2cc(OC)c(OC)cc2CN1c1ccnc(-c2ncccn2)n1 (single isomer, unassigned) [Example 56, 2-([2,2′-Bipyrimidin]-4-yl)-1-ethyl-5,6-dimethoxyisoindoline]	7.92
